PubChem BioAssay (NCI)
“And” between values parts separate entries of the source, which are not always exact repeats. Equal values may be shown once.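 Grown in 96-well plates, cells were treated for 48 hours with each compound at five concentrations. Insufficient inhibition: endpoint recorded as highest concentration tested. Abbreviation: GI50, concentration required for 50% inhibition of growth. The concentration for full growth arrest is given as TGI.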

What was measured:
Test in all cases: DTP human tumour cell line panel, 48 h
[1] = test system: DU-145 prostate
[2] = test system: HS 578T breast
[3] = test system: MCF7 breast
[4] = test system: NCI-H23 lung
[5] = test system: OVCAR-3 ovarian
[6] = test system: RPMI-8226 leukemia
[7] = test system: SF-268 CNS
[8] = test system: SF-295 CNS
[9] = test system: SNB-75 CNS
[10] = test system: T-47D breast

Structure (SMILES) | TGI [1] | TGI [2] | TGI [3] | TGI [4] | TGI [5] | TGI [6] | TGI [7] | TGI [8] | TGI [9] | TGI [10] | GI50 [1] | GI50 [2] | GI50 [3] | GI50 [4] | GI50 [5] | GI50 [6] | GI50 [7] | GI50 [8] | GI50 [9] | GI50 [10]
CC(=O)OCC1C(=O)OCC1C(=O)N1Cc2cc3ccccc3nc2C1 (stereo not drawn) | 14 µM | > 86.5 µM | 3.14 µM | 14.5 µM | 6.14 µM | 4.6 µM | 22.6 µM | 29.9 µM | 14.9 µM | 5.69 µM |  |  |  |  |  |  |  |  |  | 
N#CCCNc1nonc1-c1nc2ccccc2n1CC(=O)c1ccc(N)cc1 | 0.0984 µM | > 100 µM | > 100 µM | > 100 µM | 0.0549 µM |  | > 82 µM | > 100 µM | > 73 µM | > 100 µM | 0.0288 µM | 0.0192 µM | < 0.019 µM | 0.0312 µM | 0.0207 µM | 0.0309 µM | 0.023 µM | < 0.01 µM | 0.0232 µM | 29 µM
Cn1cc(-c2ccc3nc(-c4ccc(CC(=O)Nc5cc(C(C)(C)C)no5)cc4)cnc3c2)cn1 | > 3 µM | > 3 µM | > 3 µM | > 3 µM | > 3 µM | > 3 µM | > 3 µM | > 3 µM | > 0.84 µM | > 3 µM | 0.0296 µM | 0.024 µM |  | 0.895 µM | 0.0592 µM | 0.056 µM | 0.0399 µM | 0.0563 µM | 0.0161 µM | 0.0827 µM
CN(C)CCNC(=O)c1cc2c3cc(Cl)ccc3[nH]c2c2ncccc12 | 12.7 µM | 9.66 µM | 4.78 µM | 23.4 µM | 29.6 µM | 3.84 µM | 11.8 µM | 59.6 µM | 15.8 µM | 17.8 µM | 3.4 µM | 1.87 µM | 1.8 µM | 6.31 µM | 11.1 µM | 1.78 µM | 2.81 µM | 22.8 µM | 3.85 µM | 3.8 µM
CCCCn1c(=O)[nH]c(N)c([C@@H]2c3c([nH]c(=O)n(CCCC)c3=O)Oc3ccc4ccccc4c32)c1=O | 3.25 µM | 37.1 µM | 24 µM | 3.7 µM | 2.98 µM | 13.5 µM | 3.58 µM | 19.2 µM | 9.62 µM | 37.6 µM | 1.8 µM | 4.55 µM | 2.88 µM | 1.73 µM | 1.63 µM | 3.48 µM | 1.76 µM | 5.83 µM | 1.71 µM | 10.7 µM
Cc1ccc(NC(=O)c2ccc(CN3CCN(C)CC3)cc2)cc1Nc1nc(-c2cccnc2)cs1 | 28.4 µM and > 10 µM | 41.6 µM and > 10 µM | 21.7 µM and > 10 µM | 29.7 µM and > 10 µM | 24.3 µM and > 10 µM | 18.2 µM and > 10 µM | 26.7 µM and > 10 µM | 13.8 µM and 5.48 µM | 28.5 µM and > 10 µM | 22 µM and 7.06 µM | 15 µM and > 10 µM | 8.45 µM and 3.52 µM | 5.97 µM and 2.84 µM | 12.6 µM and > 10 µM | 11.7 µM and 3.5 µM | 3.19 µM and 2.31 µM | 12.6 µM and > 10 µM | 3.3 µM and 1.92 µM | 14.8 µM and 7.43 µM | 4.89 µM and 1.87 µM
Cc1c(Cl)cccc1C(=O)Nc1nc2c(s1)CN(C(=O)Nc1cccc(C(F)(F)F)c1)CC2 | > 50 µM | > 50 µM | > 50 µM | > 50 µM | 0.539 µM | > 39.2 µM | > 50 µM | > 41.6 µM | 3.52 µM | > 50 µM | 0.204 µM | 0.163 µM | 0.145 µM | 0.234 µM | 0.14 µM | 0.202 µM | 0.467 µM | 0.125 µM | 0.104 µM | 0.239 µM
Cc1cc(I)cc(CNCCN(C)C)c1O | > 100 µM | > 100 µM | > 100 µM | > 100 µM | > 100 µM | > 100 µM | > 100 µM | > 88.1 µM | > 100 µM | > 100 µM | 98.8 µM | 49.5 µM | > 100 µM | 97.3 µM | > 86 µM | 35.2 µM | 65.9 µM | 42.6 µM | 49.4 µM | 76.3 µM
Sc1cccc2cccnc12 | 15.9 µM | 16.4 µM | 11.6 µM | 16.8 µM | 8.01 µM | 30.3 µM | 13.5 µM | 12.8 µM | 11.6 µM | 12.3 µM | 0.626 µM | 2.81 µM | 0.484 µM | 1.91 µM | 0.467 µM | 2.9 µM | 1.35 µM | 0.645 µM | 2.72 µM | 3.07 µM
O=[N+]([O-])c1ccc(C2=NCCO2)cc1 | > 100 µM | > 100 µM | > 100 µM | > 100 µM | > 100 µM | > 100 µM | > 100 µM | > 100 µM | > 100 µM | > 100 µM | > 100 µM | > 100 µM | > 100 µM | > 100 µM | > 100 µM | > 100 µM | > 100 µM | > 100 µM | > 100 µM | > 100 µM
CCC(=C(c1ccc(OCCN2CCCCC2)cc1)c1ccc(OCCN2CCCCC2)cc1)c1ccc(Cl)cc1 | > 16.7 µM | > 16.7 µM | > 16.7 µM | > 16.7 µM | > 16.7 µM | > 16.7 µM | > 16.7 µM | > 16.7 µM | > 16.7 µM | > 16.7 µM | > 16.7 µM | 4.23 µM | 0.761 µM | > 16.7 µM | 11.2 µM | 3.6 µM | 6.7 µM | 6.53 µM | > 16.7 µM | 9.62 µM
O=C(N/N=C/c1ccc(Cl)cc1)c1ccc(NC(=O)c2ccccn2)cc1 | > 100 µM | > 100 µM | > 100 µM | > 100 µM | 33.6 µM | > 100 µM | 95 µM | > 100 µM | 24.9 µM | > 100 µM | 27.2 µM | 21.1 µM | 47.3 µM | 26.3 µM | 14 µM | > 100 µM | 16.1 µM | 28.7 µM | 5.52 µM | 21.2 µM
CC1(C)N=C(N)N=C(N)N1c1ccc(OCCCNC(=O)Nc2ccc(S(=O)(=O)F)cc2)c(Cl)c1 | > 100 µM | > 78.8 µM | > 100 µM | > 100 µM | > 100 µM | > 75 µM | > 100 µM | > 100 µM | 50 µM | > 100 µM | 0.277 µM | 4.6 µM | 0.238 µM | 0.488 µM | 1.55 µM | 1.64 µM | 0.199 µM | 0.504 µM | 1.02 µM | 5.65 µM
COc1ccc(C2=NN(C(N)=S)C(c3ccc4c(c3)OCO4)C2)cc1 (stereo not drawn) | 4.56 µM | 7.09 µM | > 100 µM | 23.3 µM | 4.72 µM | 6.33 µM | 8.02 µM | 11.9 µM | 8.51 µM | 41 µM | 1.94 µM | 2.82 µM | 3.23 µM | 3.71 µM | 2.07 µM | 1.88 µM | 2.79 µM | 2.64 µM | 2.75 µM | 3.22 µM
C[N+]1([O-])C2CCC1CC(OC(=O)C(CO)c1ccccc1)C2 (stereo not drawn) | > 100 µM | > 100 µM | > 100 µM | > 100 µM | > 100 µM | > 100 µM | > 100 µM | > 100 µM | > 100 µM | > 100 µM |  |  |  |  |  |  |  |  |  | 
COc1cc(/C=C/C(=O)c2cccc(-n3cc(-c4ccccc4)[nH]c3=O)c2)cc(OC)c1OC | 7.85 µM | 27.1 µM | 1.12 µM | 3.29 µM | 3.14 µM | > 100 µM | 5.74 µM | 4.41 µM | 16.8 µM | 6.9 µM | 2.16 µM | 3.41 µM | 0.31 µM | 1.43 µM | 1.23 µM | 0.626 µM | 1.92 µM | 1.9 µM | 4.47 µM | 2.19 µM
O=C(O)/C=C\C(=O)Nc1ccc2c(c1)-c1ccccc1C2 | > 100 µM | > 100 µM | > 100 µM | > 100 µM | > 100 µM | > 100 µM | > 100 µM | > 100 µM | > 100 µM | > 100 µM |  |  |  |  |  |  |  |  |  | 
CC(C)=CC[C@@H]1CC2(CC=C(C)C)C(=O)C(OC3(C(=O)c4ccccc4)C(=O)C4(CC=C(C)C)C[C@@H](CC=C(C)C)C(C)(C)C(CC=C(C)C)(C4=O)C3=O)(C(=O)c3ccccc3)C(=O)C(CC=C(C)C)(C2=O)C1(C)C (stereo partly drawn) | 3.88 µM | 4.67 µM | 5.85 µM | 4.48 µM | 3.25 µM | 2.7 µM | 2.89 µM | 2.5 µM | 5.62 µM | 4.07 µM | 1.35 µM | 1.6 µM | 1.37 µM | 1.36 µM | 1.24 µM | 1.05 µM | 1.13 µM | 1.01 µM | 1.11 µM | 1.19 µM
CC(C)(C)CC(C)(C)c1ccc(OCCO)cc1 | 20.6 µg/mL | 19.6 µg/mL | 17 µg/mL | 20.9 µg/mL | 13.4 µg/mL | 19.5 µg/mL | 27.3 µg/mL | 8.56 µg/mL | 18.1 µg/mL | 18.3 µg/mL | 9.51 µg/mL | 4.26 µg/mL | 4.01 µg/mL | 1.33 µg/mL | 2.63 µg/mL | 1.9 µg/mL | 8.87 µg/mL | 1.07 µg/mL | 3.45 µg/mL | 2.1 µg/mL
Cc1c2cnccc2c(C)c2c1c1ccccc1n2CCOC(=O)c1ccccc1 | > 100 µM | 84.6 µM | 44.1 µM | 54.7 µM | 28.8 µM | 42 µM | 79.5 µM | 33 µM | 44.7 µM | > 100 µM |  |  |  |  |  |  |  |  |  | 
